Measured values as given in ChEMBL document CHEMBL1201862, “PubChem BioAssay data set” (2004).
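A five-concentration, 48-hour dose response in 96-well plates underlies each endpoint, interpolated linearly between surrounding concentrations. Here, GI50 denotes the concentration required for 50% inhibition of growth.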 Active and inactive are the calls of the source. Rule as the data show it: active = GI50 up to about 1.1 µM and inactive = higher.

Experiments:
Assay in all cases: DTP human tumour cell line panel, 48 h
HCC 2998 = tested on: HCC 2998
HT-29 = tested on: HT-29
K562 = tested on: K562
Malme-3M = tested on: Malme-3M
NCI-H522 = tested on: NCI-H522
RPMI-8226 = tested on: RPMI-8226
RXF 393 = tested on: RXF 393
SF-268 = tested on: SF-268
SK-MEL-28 = tested on: SK-MEL-28
SK-OV-3 = tested on: SK-OV-3
SN12C = tested on: SN12C
SNB-75 = tested on: SNB-75
SW-620 = tested on: SW-620
TK-10 = tested on: TK-10
UACC-257 = tested on: UACC-257
UACC-62 = tested on: UACC-62
OVCAR-8 = tested on: OVCAR-8

Measured: GI50

COC(=O)C(C(=O)C(=O)Nc1nc2ccc(OC)cc2s1)c1cnc2ccccc2n1 (centres undefined)
inactive: HCC 2998 > 100 µM | HT-29 > 100 µM | K562 > 100 µM | Malme-3M > 100 µM | NCI-H522 > 100 µM | RPMI-8226 > 100 µM | RXF 393 > 100 µM | SF-268 > 100 µM | SK-MEL-28 > 100 µM | SK-OV-3 > 100 µM | SN12C > 100 µM | SNB-75 > 100 µM | SW-620 > 100 µM | TK-10 > 100 µM | UACC-257 > 100 µM | UACC-62 > 100 µM

CCOc1ccc(NC2=NC(=O)C(CC(=O)Nc3ccc(Cl)cc3Cl)S2)cc1 (centres undefined)
inactive: HCC 2998 > 100 µM | HT-29 > 100 µM | K562 > 100 µM | Malme-3M > 100 µM | OVCAR-8 > 100 µM | RPMI-8226 > 100 µM | SF-268 > 100 µM | SK-MEL-28 > 100 µM | SK-OV-3 > 100 µM | SN12C > 100 µM | SNB-75 > 100 µM | SW-620 > 100 µM | TK-10 > 100 µM | UACC-257 > 100 µM | UACC-62 > 100 µM

Cn1c2c(cc(-c3ccccc3)c1=O)COc1ccccc1-2
inactive: HCC 2998 24.8 µM | HT-29 19.9 µM | K562 23.9 µM | Malme-3M 20.3 µM | NCI-H522 17.9 µM | OVCAR-8 34 µM | RPMI-8226 20.2 µM | RXF 393 36.1 µM | SF-268 28.6 µM | SK-MEL-28 24.1 µM | SK-OV-3 37.8 µM | SN12C 35 µM | SNB-75 23.4 µM | SW-620 45.9 µM | UACC-257 36.9 µM | UACC-62 14.7 µM

CCCCOC(=O)NC(=O)c1cn(CCSCCOC(=O)NCCCCCCNC(=O)OCCSCCn2cc(C(=O)NC(=O)OCCCC)c(=O)[nH]c2=O)c(=O)[nH]c1=O
inactive: HCC 2998 > 100 µM | HT-29 > 100 µM | K562 > 100 µM | Malme-3M 29.7 µM | NCI-H522 32.6 µM | RPMI-8226 > 100 µM | RXF 393 22.5 µM | SF-268 > 100 µM | SK-MEL-28 > 100 µM | SK-OV-3 30.1 µM | SN12C > 100 µM | SNB-75 19 µM | SW-620 > 10 µM | TK-10 30.1 µM | UACC-257 > 100 µM | UACC-62 41.5 µM

COc1ccc(CC#N)c(OCc2ccccc2)c1
inactive: HCC 2998 29.9 µM | K562 58.6 µM | Malme-3M 22 µM | NCI-H522 38.9 µM | OVCAR-8 > 100 µM | RPMI-8226 43.3 µM | SF-268 68.4 µM | SK-MEL-28 23.9 µM | SN12C 51.5 µM | SW-620 31 µM | UACC-257 39.3 µM | UACC-62 28.8 µM

COC(=O)[C@@]12CC(C(C)C)[C@H]3CC(C(=O)C=C1OC)[C@H]32 (some centres undefined)
inactive: HCC 2998 > 100 µM | HT-29 > 100 µM | K562 85.5 µM | Malme-3M > 100 µM | OVCAR-8 > 100 µM | RPMI-8226 > 100 µM | RXF 393 > 100 µM | SF-268 > 100 µM | SK-MEL-28 > 100 µM | SK-OV-3 > 100 µM | SN12C > 100 µM | SNB-75 > 100 µM | SW-620 > 100 µM | TK-10 > 100 µM | UACC-257 > 100 µM | UACC-62 > 100 µM

Cc1ccc(C(=O)c2nnc(C(=O)c3ccc(C)cc3)nn2)cc1
inactive: HCC 2998 > 100 µM | HT-29 61.9 µM | K562 23.3 µM | Malme-3M 65.5 µM | NCI-H522 35.5 µM | OVCAR-8 34.9 µM | RPMI-8226 30.5 µM | SF-268 21 µM | SK-MEL-28 51.3 µM | SK-OV-3 19.3 µM | SN12C 45.3 µM | SNB-75 > 100 µM | SW-620 20.8 µM | TK-10 78.3 µM | UACC-257 58.3 µM | UACC-62 36.1 µM

O=[N+]([O-])c1cccc(C2=NN(c3ccccc3)C3c4cc(Br)ccc4OCC23)c1 (centres undefined)
inactive: HCC 2998 > 100 µM | HT-29 46.1 µM | K562 > 100 µM | Malme-3M > 100 µM | NCI-H522 97.5 µM | OVCAR-8 > 100 µM | RPMI-8226 > 100 µM | RXF 393 > 100 µM | SF-268 > 100 µM | SK-MEL-28 > 100 µM | SK-OV-3 > 100 µM | SNB-75 > 100 µM | SW-620 > 100 µM | TK-10 > 100 µM | UACC-257 > 100 µM

O=C(O)c1ccc(/N=N/c2cc(S(=O)(=O)O)c3cccnc3c2O)cc1
inactive: HCC 2998 > 100 µM | HT-29 > 100 µM | K562 > 100 µM | Malme-3M > 100 µM | OVCAR-8 > 100 µM | RPMI-8226 > 100 µM | RXF 393 > 100 µM | SF-268 > 100 µM | SK-MEL-28 > 100 µM | SK-OV-3 > 100 µM | SN12C > 100 µM | SNB-75 > 100 µM | SW-620 > 100 µM | TK-10 > 100 µM | UACC-257 > 100 µM

Cc1ccc(-c2c(N)nc(NC#N)nc2CCC(=O)Nc2ccccc2[N+](=O)[O-])cc1
inactive: HCC 2998 > 100 µM | HT-29 > 100 µM | K562 > 100 µM | Malme-3M > 100 µM | NCI-H522 85.1 µM | RPMI-8226 > 100 µM | RXF 393 > 100 µM | SF-268 > 100 µM | SK-MEL-28 > 100 µM | SK-OV-3 > 100 µM | SN12C > 100 µM | SNB-75 > 100 µM | SW-620 > 100 µM | TK-10 > 100 µM | UACC-257 > 100 µM | UACC-62 > 100 µM

CN(C)c1snc2c1c(=O)n(C)c(=O)n2C
inactive: HCC 2998 > 100 µM | HT-29 > 100 µM | K562 > 100 µM | Malme-3M > 100 µM | NCI-H522 > 100 µM | OVCAR-8 > 100 µM | RPMI-8226 > 100 µM | SF-268 > 100 µM | SK-MEL-28 > 100 µM | SK-OV-3 > 100 µM | SN12C > 100 µM | SNB-75 35.7 µM | SW-620 > 100 µM | TK-10 > 100 µM | UACC-257 > 100 µM | UACC-62 > 100 µM

CCOC(=O)N1c2c(ccn2C)-c2ccn(C)c2N1C(=O)OCC
inactive: HCC 2998 19.6 µM | HT-29 15.7 µM | K562 4.2 µM | Malme-3M 19 µM | NCI-H522 11.3 µM | OVCAR-8 14.1 µM | RPMI-8226 20.9 µM | SF-268 19.1 µM | SK-OV-3 30.6 µM | SN12C 15.8 µM | SNB-75 15.5 µM | SW-620 15.2 µM | UACC-257 > 10 µM | UACC-62 16.7 µM

NC(=O)c1cc(C2OC(CO)C(O)C2O)nn1-c1ccc([N+](=O)[O-])cc1 (centres undefined)
inactive: HCC 2998 > 100 µM | HT-29 > 100 µM | K562 > 100 µM | Malme-3M > 100 µM | OVCAR-8 > 100 µM | RPMI-8226 88.9 µM | RXF 393 > 100 µM | SF-268 > 100 µM | SK-MEL-28 > 100 µM | SK-OV-3 > 100 µM | SN12C > 100 µM | SNB-75 > 100 µM | SW-620 43.3 µM | TK-10 > 100 µM | UACC-257 > 100 µM | UACC-62 > 100 µM

N=CCCN(CCC=N)c1ccc(/C=C2\CN(NC(=O)c3ccc(Cl)cc3)C(c3ccccc3)=N2)cc1
inactive: HCC 2998 > 100 µM | HT-29 > 100 µM | K562 > 100 µM | Malme-3M > 100 µM | OVCAR-8 > 100 µM | RPMI-8226 26.4 µM | SF-268 > 100 µM | SK-MEL-28 > 100 µM | SK-OV-3 > 100 µM | SN12C > 100 µM | SNB-75 > 100 µM | SW-620 15.6 µM | TK-10 > 100 µM | UACC-257 > 100 µM | UACC-62 > 100 µM

CC(=O)C1=CCC2c3[nH]c4ccccc4c3CCN2C1 (centres undefined)
inactive: HCC 2998 55 µM | HT-29 31.3 µM | K562 31 µM | Malme-3M 72.1 µM | NCI-H522 24.7 µM | OVCAR-8 47.6 µM | RXF 393 35.8 µM | SF-268 69.2 µM | SK-MEL-28 > 100 µM | SK-OV-3 21.6 µM | SN12C 68.4 µM | SNB-75 15.1 µM | SW-620 > 100 µM | TK-10 > 100 µM | UACC-257 > 100 µM

O=C(O)CN(c1ccccc1)S(=O)(=O)c1ccc(Cl)cc1
inactive: HT-29 > 100 µM | K562 > 100 µM | Malme-3M > 100 µM | NCI-H522 > 100 µM | OVCAR-8 > 100 µM | RPMI-8226 > 100 µM | RXF 393 > 100 µM | SF-268 > 100 µM | SK-MEL-28 > 100 µM | SK-OV-3 > 100 µM | SN12C > 100 µM | SNB-75 59 µM | SW-620 > 100 µM | TK-10 > 100 µM | UACC-257 > 100 µM | UACC-62 > 100 µM

C[C@@H]1O[C@@H](O[C@H]2[C@H](Oc3cc(O)c4c(=O)cc(-c5ccc(O)cc5)oc4c3)O[C@H](CO)[C@@H](O)[C@@H]2O)[C@H](O)[C@H](O)[C@H]1O [RHOIFOLIN]
inactive: HT-29 > 100 µM | K562 > 100 µM | Malme-3M > 100 µM | NCI-H522 > 100 µM | OVCAR-8 > 100 µM | RPMI-8226 > 100 µM | SF-268 > 100 µM | SK-MEL-28 > 100 µM | SK-OV-3 > 100 µM | SN12C > 100 µM | SNB-75 > 100 µM | TK-10 > 100 µM | UACC-257 > 100 µM | UACC-62 > 100 µM
